# Data reported in US12529022B2, “Human organ-on-chip models for predictive screening” (The Trustees of Columbia University in the City of New York, priority 2018, dated 2026).
# Where a name gives a salt, the structure may show the parent alone.
# How the values were obtained:
# human cardiac OOC [1] = tested on: human cardiac OOC
# Text: (§2) The pillars subjected the hydrogel to mechanical loading designed to mimic that in the native heart. The hydrogel compaction caused passive tension in the tissues as they're stretched and aligned between the pillars. Synchronous contractions forced the tissues to work against the pillars. […] Cardiac model development: Cardiac tissues were formed by cell encapsulation in fibrin hydrogel. Human iPS cell-derived cardiomyocytes at day 16 of differentiation were combined with normal human dermal fibroblasts (NHDF; Lonza) at a ratio of 75% hiPSC-CMs and 25% NHDF, for a total of 1 million cells per tissue. The hydrogel was formed by mixing 33 mg/mL of fibrinogen from human plasma (Sigma-Aldrich) with 25 U/mL of thrombin from human plasma (Sigma-Aldrich), on a 84:16 ratio. The hydrogel mixed with the cells was dispensed into each well of the tissues formation reservoir and allowed to polymerize at 37° C. for 15 min before adding RPMI Medium 1640 supplemented with B-27™ containing 0.2 mg/ml aprotinin (Sigma-Aldrich). Subsequently, medium was changed every other day supplemented with 0.2 mg/ml aprotinin for the first 7 days. After 7 days, tissues were used in experiments. […] Contractility videos: Tissue contractility was measured by tracking the change in tissue area as a function of time. […] Absolute differences in cell area from the baseline frame were then calculated to create a time course of cell area dynamics as a function of time. The resulting time courses were analysed using a native MATLAB (MATHWorks) automated peak finding algorithm to determine locations of maximum cell contraction indicated by the locations of local maxima in the time courses. Beat period lengths were determined from the length of time between the pairs of local maxima. Beat frequencies were determined by inverting beat periods; relaxation times were measured from the length of time required for the tissue to relax from the peak contraction amplitude of the local maxima to the calculated relaxation amplitude.
# all tissue types = test: Doxorubicin study in integrated multi-tissue platform: common toxicity readouts; type: cell-based, human; details: 72 hours after 30 μM dose
# cardiac compartment = test: Doxorubicin study: cardiac compartment function; type: cell-based, human; details: 30 μM, 72 hours
# Liver tissues = test: Doxorubicin study: liver functionality; type: cell-based, human; details: 30 μM, 72 hours, only in the integrated experimental groups
# Method: (§1) Common tissue responses were measured for each tissue individually, 72 hours after their assembly into the integrated platform and exposure to 30 μM concentration of doxorubicin introduced into the circulatory perfusion. FIG. 61 illustrates the Doxorubicin (Dox) drug study design including four conditions tests (integrated control, integrated Dox, isolated control, isolated Dox).
# Bone tissues = test: Doxorubicin study: bone remodeling and histology; details: 30 μM, 72 hours
# Method: as §1
# skin tissues = test: Doxorubicin study: skin barrier transport and TEER; type: cell-based, human; details: 30 μM, 72 hours, isolated and integrated comparable
# Method: as §1
# human cardiac OOC [2] = test: cells; details: read-out: EC50 of increase in beat frequency
# Text: as §2
smiles,measurement,setting,value
"CCCCc1oc2ccccc2c1C(=O)c1cc(I)c(OCCN(CC)CC)c(I)c1 [amiodarone, amiodarone hydrochloride]",beating frequency,"human cardiac OOC [1]; amiodarone 2.42 μM (FIG. 50 legend prints 2.42 M), over 48 hours",beating frequency decreased
Cn1c(=O)c2c(ncn2C)n(C)c1=O [caffeine],beat frequency,human cardiac OOC [1]; caffeine 50 mM,increase in beat frequency
"COc1cccc2c1C(=O)c1c(O)c3c(c(O)c1C2=O)C[C@@](O)(C(=O)CO)C[C@@H]3O[C@H]1C[C@H](N)[C@H](O)[C@H](C)O1 [doxorubicin, doxorubicin hydrochloride]",cell viability,all tissue types,significant decreases
same,glucose consumption,all tissue types,significant decreases
same,mitochondrial activity,all tissue types,significant decreases
same,contractile and conductive behavior,cardiac compartment,decreased contractile and conductive behavior
same,release of troponin,cardiac compartment,increased release of troponin
same,albumin production,Liver tissues,decreased albumin
same,urea production,Liver tissues,unaffected urea production
same,TRAP activity (bone remodeling),Bone tissues,stable TRAP responses
same,electrical resistance (TEER) of skin,skin tissues,electrical resistance decreased
"CC(C)NCC(O)c1ccc(O)c(O)c1 (stereo not drawn) [isoproterenol, isoproterenol hydrochloride]",EC50,human cardiac OOC [2],0.03 µM
